These results are taken from patent US20240092756A1, “METHODS AND COMPOSITION FOR KRAS MODIFICATIONS” (2692372 ONTARIO, INC., priority 2020, published 2024).

Each structure is given as a SMILES string.

For assay [1], the target named is T1, KRAS G12C (SEQ ID NO:1 or SEQ ID NO:2) (Homo sapiens, UniProt P01116, G12C).
T1 construct: purchased
Description: Intact mass analysis (LC-MS) of covalent modification, KRAS G12C. Format: binding. More on the design: key to KRAS G12C Modification: b: KRAS G12C modified. Conditions: intact mass spectrometry; covalent modification of KRAS G12C FL. The protocol:
The covalent modification of the proteins with the compounds were evaluated using intact mass analysis by liquid chromatography-mass spectrometry instrument (LC-MS/MS).
The reaction solution (20 μL) was prepared in 96-well plate and contained the protein (2 μM), the compound (100 μM), HEPES buffer (20 mM, pH 8), 2% DMSO, 2% glycerol, and 150 mM NaCl. The reaction was allowed to proceed for 24 h at 25° C. The reaction solution (1 μL) was injected into the LC/MS/MS without any further sample preparation.
The LC-MS/MS instrument comprises of a Waters G2-XS quadrupole-time of flight (QTof) mass spectrometer and a Waters Acuity I-class Ultra-High Performance Liquid Chromatography (UPLC) system. The I-class UPLC system includes a binary solvent manager (BSM), and an Acquity sample manager (SM). The mobile phase consisted of: A) 0.1% (v/v) formic acid in MilliQ water; B) 0.1% (v/v) formic acid acetonitrile. Gradients were run over 5 min and proceeded as follows: A:B, 85:15, 0.0-0.7 min, 85:15→15:85, 0.7-1.5 min, 10:90, 1.5-4 min, 10:90→85:15, 4-4.5 min, 85:15, 4.5-5 min. The analytical column was a Waters BEH C4 column 1.7 μm (50×1 mm) column with pore sizes of 300 Å. The TOF MS data was collected in positive ion mode (m/z of 400-2000 Da) using MassLynx software (Waters).
The spectral deconvolution was performed using UNIFI software (Waters). The added mass of the protein upon covalent modification to cysteine residues were specified. Multiple modification of up to 8 cysteine was allowed. All the adducts with signal intensities of <2% of the base peak were ignored. The % modification was calculated as the adduct signal intensity over the total intensities of the protein peaks and the adducts.

The target of assay [2] is T2, KRAS G12C (Homo sapiens, UniProt P01116, G12C). The assay is described as follows: Differential scanning fluorimetry, KRAS G12C. It counts as binding. Details: purchased; key: Y: protein destabilized; N: protein not destabilized. Conditions: 37° C. 5 hours incubation. As for the experimental part: KRas proteins at 0.05 mg/ml in buffer Hepes, 147 mM NaCl, 2% glycerol, 5 mM MgCl2, 1 mM EDTA, 10 μM GDP, pH 8.0 were incubated in the presence desired concentration of compounds (5% DMSO final concentration) at 37° C. for 5 hours. After incubation, Sypro Oange to a final concentration of 5× was added to each sample. 20 μl aliquots of samples were transferred PCR tubes, sealed with caps, and run in a BioRad CFX96 RTPCR thermocycler. In the instrument, the samples were heated at a rate of 1° C./min from 25 to 90 degrees. Fluorescence readings were taken every 1 degree. The data generated was exported and analyzed using GraphPad-Prism software. The denaturation curves were fit using a Boltzmann sigmoidal equation to calculate melting temperatures (Tm).
For orientation: DSF heats the sample and reads unfolding from a dye or from intrinsic fluorescence.

Assay [3] concerns the target T2, KRAS G12C. Description: SOS1-catalyzed KRAS coupled nucleotide exchange assay (Alpha technology). It counts as biochemical. Details: His; key: A: KRAS G12C bound and modulated. Conditions: inhibition of SOS1 mediated KRAS nucleotide exchange. The procedure, abridged:
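Alpha readout of c-RAF RBD binding to GTP-bound KRAS, normalized to DMSO. Method I: 20 nM GDP-KRAS G12C/C118A with compound 5 min, then 1.25 mM GTP + 500 nM SOS-1 30 min, pH 7.4 HEPES/MgCl2 buffer, 50 nM RBD. Method II: 50 nM GDP-KRAS G12C with compound 2 h, 1 mM GTP + 500 nM SOS-1 30 min, 2.5 nM GST-RBD; RT throughout.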

Consider `Cc1ccnc(C(C)C)c1-n1c(=O)nc(NC2CN(S(=O)(=O)c3c(F)c(F)c(F)c(F)c3C(F)(F)F)C2)c2cc(F)c(Cl)nc21` [Compound 14A, 7-chloro-6-fluoro-1-(2-isopropyl-4-methylpyridin-3-yl)-4-((1-((2,3,4,5-tetrafluoro-6-(trifluoromethyl)phenyl)sulfonyl)azetidin-3-yl)amino)pyrido[2,3-d]pyrimidin-2(1H)-one], for which the “KRAS G12C Modification” value in assay [1] is “b”. At KRAS G12C [2], the “KRAS G12C DSF ΔTm” value is “Y”. Besides, at KRAS G12C [3], the “KRAS-SOS1 Nucleotide Exchange” value is “A”.

Turning to `Cc1ccnc(C(C)C)c1-n1c(=O)nc(NC2CN(S(=O)(=O)c3c(F)c(F)c(F)c(F)c3C(F)(F)F)C2)c2cc(F)c(-c3c(O)cccc3F)nc21` [Compound 15A, 6-fluoro-7-(2-fluoro-6-hydroxyphenyl)-1-(2-isopropyl-4-methylpyridin-3-yl)-4-((1-((2,3,4,5-tetrafluoro-6-(trifluoromethyl)phenyl)sulfonyl)azetidin-3-yl)amino)pyrido[2,3-d]pyrimidin-2(1H)-one], in assay [1], the “KRAS G12C Modification” value was “b”. Further, on KRAS G12C [2], the “KRAS G12C DSF ΔTm” value is given as “Y”. Besides, at KRAS G12C [3], the “KRAS-SOS1 Nucleotide Exchange” value is listed as “A”.
